From ChEMBL document CHEMBL1201862, “PubChem BioAssay data set” (2004)
Activity calls are given as the source filed them.

Legend:
[1] = biological target: 72 kDa type IV collagenase (Homo sapiens, UniProt P08253); assay: Dose Response validation of uHTS RPN11 inhibitor hits using a MMP-2 Fluorescence assay.; type: functional
[2] = biological target: T1, Endoribonuclease toxin MazF (Escherichia coli K-12, UniProt P0AE70); assay: fluorescent RNA oligo signal without MazF, dose response, counter-screen for MazEF activator project, biochemical, fluorescence, single-stranded RNase substrate (AID 588502); type: functional
T1 sequence (P0AE70 whole entry): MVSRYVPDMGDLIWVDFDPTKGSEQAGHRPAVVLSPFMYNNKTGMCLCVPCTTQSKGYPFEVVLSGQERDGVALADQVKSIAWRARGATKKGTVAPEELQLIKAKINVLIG

[3] = biological target: 26S proteasome non-ATPase regulatory subunit 14 (Homo sapiens, UniProt O00487); assay: inhibition of proteasome subunit RPN11 – biochemical, fluorescence polarization, uHTS hits, confirmation (AID 602368); type: functional
26S proteasome non-ATPase regulatory subunit 14, sequence (O00487 whole entry): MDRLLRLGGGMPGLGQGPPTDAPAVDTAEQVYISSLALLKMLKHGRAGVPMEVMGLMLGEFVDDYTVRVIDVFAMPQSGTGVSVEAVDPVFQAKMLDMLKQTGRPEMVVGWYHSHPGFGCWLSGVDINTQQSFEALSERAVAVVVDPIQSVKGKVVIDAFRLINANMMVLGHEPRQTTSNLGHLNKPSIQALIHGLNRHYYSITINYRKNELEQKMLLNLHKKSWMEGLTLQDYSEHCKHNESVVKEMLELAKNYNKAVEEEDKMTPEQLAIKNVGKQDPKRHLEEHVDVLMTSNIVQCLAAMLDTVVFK

[4] = biological target: T1, Endoribonuclease toxin MazF; assay: MazF toxin RNase activators, dose response, biochemical, fluorescence, single-stranded RNA substrate, uHTS hits (AID 588481); type: functional
[5] = biological target: Prothrombin (Bos taurus, UniProt P00735); assay: thrombin inhibition, dose response, biochemical, fluorescence polarization, uHTS hits (AID 602369); type: functional
[6] = AlphaScreen signal interference compounds, dose response, artefact control for ARNT-TACC3 interaction inhibitor project, biochemical, luminescence, cherry-pick (AID 651705); type: functional;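 also: AlphaScreen bead proximity signal that flags compounds interfering with the detection technology; potency reflects signal decrease which marks the compound as an assay artifact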
[7] = biological target: T2, Probable nicotinate-nucleotide adenylyltransferase (Staphylococcus aureus (strain N315), UniProt P65502); type: functional, Staphylococcus aureus subsp. aureus N315; conditions: read-out: IC50_Mean;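 as to IC50 Mean: confirmatory dose-response retesting of NadD inhibitor hits first found in an ultra-high-throughput screen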
T2 sequence (P65502 whole entry): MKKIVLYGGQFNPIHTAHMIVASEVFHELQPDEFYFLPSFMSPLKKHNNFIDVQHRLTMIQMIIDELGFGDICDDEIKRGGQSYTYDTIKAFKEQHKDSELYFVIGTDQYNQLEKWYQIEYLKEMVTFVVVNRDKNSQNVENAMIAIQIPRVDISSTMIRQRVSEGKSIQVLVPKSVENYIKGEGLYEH

[8] = biological target: T2, Probable nicotinate-nucleotide adenylyltransferase; type: functional, Staphylococcus aureus subsp. aureus N315
[9] = biological target: T3, Small ubiquitin-related modifier 1 (Homo sapiens, UniProt P63165); assay: inhibitors of SUMO1 peptide binding, dose response, biochemical, fluorescence polarization, uHTS hits (AID 624382); type: functional; conditions: read-out: IC50_Mean
T3 sequence (P63165 whole entry): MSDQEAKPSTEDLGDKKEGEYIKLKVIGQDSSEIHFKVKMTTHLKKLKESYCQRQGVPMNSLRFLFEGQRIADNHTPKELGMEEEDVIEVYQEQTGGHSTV

[10] = biological target: T3, Small ubiquitin-related modifier 1; assay: inhibitors of SUMO1 partner interactions, dose response, biochemical, FRET (AID 624383); type: functional; conditions: read-out: IC50_Mean

72 kDa type IV collagenase, sequence (P08253 whole entry): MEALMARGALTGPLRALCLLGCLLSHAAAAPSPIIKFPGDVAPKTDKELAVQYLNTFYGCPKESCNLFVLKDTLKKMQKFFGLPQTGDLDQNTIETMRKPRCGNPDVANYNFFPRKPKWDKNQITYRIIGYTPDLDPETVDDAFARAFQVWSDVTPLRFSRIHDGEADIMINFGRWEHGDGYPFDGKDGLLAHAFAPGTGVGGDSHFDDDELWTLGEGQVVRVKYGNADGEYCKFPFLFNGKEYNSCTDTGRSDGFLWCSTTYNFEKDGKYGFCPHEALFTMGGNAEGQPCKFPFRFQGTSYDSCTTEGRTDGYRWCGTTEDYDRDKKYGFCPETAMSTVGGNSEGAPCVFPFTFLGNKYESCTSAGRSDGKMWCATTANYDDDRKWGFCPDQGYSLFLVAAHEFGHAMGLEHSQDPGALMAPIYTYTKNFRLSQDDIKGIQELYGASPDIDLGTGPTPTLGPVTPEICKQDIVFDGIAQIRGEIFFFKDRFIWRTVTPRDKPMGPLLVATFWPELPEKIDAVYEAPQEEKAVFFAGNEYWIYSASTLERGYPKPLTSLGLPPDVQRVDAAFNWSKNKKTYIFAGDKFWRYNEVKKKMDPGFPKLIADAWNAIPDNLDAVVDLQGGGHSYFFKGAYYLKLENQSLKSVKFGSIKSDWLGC

Which IC50 [1] does the source give for `CCCN1C(=O)/C(=C/c2c(NCCCOC(C)C)nc3c(C)cccn3c2=O)SC1=S` here?
Its IC50 is > 100 µM (inactive).

And the EC50 [2]?
The EC50 was 34.2 µM (inactive).

What about the IC50 [3] of the same compound?
Its IC50 is 0.09 µM (active).

What about the EC50 [4] of the same compound?
Its EC50 is 16 µM (active).

What about the IC50 [5] of the same compound?
The IC50 was 0.148 µM (active).

Which AC50 [6] does the source give for `COc1cc(CNCc2ccccn2)ccc1OCC(=O)NC(C)(C)C` here?
The AC50 was 90.6 µM (active).

For `COC(=O)c1ccc(CSc2ccc3nnc(-c4ccccn4)n3n2)o1`, which AC50 [6] is on record?
Its AC50 is 98.1 µM (active).

Which IC50 [7] does the source give for `O=C(NCc1ccco1)c1cccc2c1C(=O)c1ccc(/C=C/c3ccccc3)cc1S2(=O)=O` here?
The IC50 was 29.3 µM (active).

And the IC50 [8]?
The IC50 was 11.5 µM (active).

Which IC50 [9] does the source give for `COc1cccc2sc(Nc3nc(-c4cc5ccccc5oc4=O)cs3)nc12` here?
The IC50 was > 66.6 µM (inactive).

What about the IC50 [10] of the same compound?
Its IC50 is 2.42 µM (active).

Which results are given for `NN=C1c2ccccc2C(=O)C1C(=O)C(c1ccccc1)c1ccccc1` (stereo not drawn)?
IC50 [7]: 25.5 µM (active); IC50 [8]: 13.8 µM (active)
